Patent US9498483B2, “2,3,5-trisubstituted thiophene compounds and uses thereof” (priority 2010, dated 2016)

Columns and labels:
[1] = target: T1, HCV polymerase (Hepatitis C virus genotype 1b, UniProt Q9WMX2); test: Polymerase assay of Biological Example 1 (IC50 values of Table 3); format: biochemical; settings: IC50 values of Table 3, polymerase assay of Biological Example 1; read-out: NS5B-enzyme3
T1 construct: (His)6 (C); made in house; host or cells: XL-1 cells (E. coli, by own knowledge)

[2] = system: HCV replicon I389luc-ubi-neo/NS3-3′/ET in ET (Huh-lucubineo-ET) cells; test: Replicon assay (Biological Example 2), luciferase readout; format: cell-based; settings: Hepatitis C virus
Outline: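 EC50 values come from Hill fits of % inhibition of replicon-driven firefly luciferase, relative to no-compound wells. Compounds were serially diluted (10 points, 3-fold, 0.1 nM–50 μM final, 0.5% DMSO) onto ET replicon cells and read after 48 h.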

[3] = ET cells, luciferase activity 48 hours after compound

Compound | IC50 [1] [nM] | IC50 [2, 3] [nM] | IC50 ([2]; between 100 nM and 5.0 uM) [nM]
CN1CCN(c2ccc(S(=O)(=O)N3CC(=O)N(c4cc(-c5ccccc5)sc4C(=O)O)[C@H](C4CCCCC4)C3)cn2)CC1 [Compound 137, 3-{(R)-2-Cyclohexyl-4-[6-(4-methyl-piperazin-1-yl)-pyridine-3-sulfonyl]-6-oxo-piperazin-1-yl}-5-phenyl-thiophene-2-carboxylic acid] | 1.5 | ≤ 100 | –
CC1(N)CCN(c2ccc(S(=O)(=O)N3CC(=O)N(c4cc(-c5ccccc5)sc4C(=O)O)[C@H](C4CCCCC4)C3)cn2)CC1 [Compound 138, 3-[(R)-4-(4-Amino-4-methyl-3,4,5,6-tetrahydro-2H-[1,2′]bipyridinyl-5′-sulfonyl)-2-cyclohexyl-6-oxo-piperazin-1-yl]-5-phenyl-thiophene-2-carboxylic acid] | 1 | ≤ 100 | –
C[C@@H]1CCCN1c1ccc(S(=O)(=O)N2CC(=O)N(c3cc(-c4ccc(F)cc4)sc3C(=O)O)[C@H](C3CCCCC3)C2)cn1 [Compound 185, 3-{(R)-2-Cyclohexyl-4-[6-((R)-2-methyl-pyrrolidin-1-yl)-pyridine-3-sulfonyl]-6-oxo-piperazin-1-yl}-5-(4-fluoro-phenyl)-thiophene-2-carboxylic acid] | 1 | ≤ 100 | –
Cc1ccc(-c2cc(N3C(=O)CN(S(=O)(=O)c4ccc(C(F)(F)F)nc4)C[C@H]3C3CCCCC3)c(C(=O)O)s2)cc1 [Compound 300, 3-[(R)-2-Cyclohexyl-6-oxo-4-(6-trifluoromethyl-pyridine-3-sulfonyl)-piperazin-1-yl]-5-p-tolyl-thiophene-2-carboxylic acid] | 31 | – | 100 to 5000
CN1CCN(C(=O)c2ccc(-c3ccc(S(=O)(=O)N4CC(=O)N(c5cc(-c6ccccc6)sc5C(=O)O)[C@H](C5CCCCC5)C4)cn3)cc2)CC1 [Compound 202, 3-((R)-2-Cyclohexyl-4-{6-[4-(4-methyl-piperazine-1-carbonyl)-phenyl]-pyridine-3-sulfonyl)-6-oxo-piperazin-1-yl)-5-phenyl-thiophene-2-carboxylic acid] | 1 | ≤ 100 | –
O=C(O)c1sc(-c2ccccc2)cc1N1C(=O)CNC[C@H]1C1CCCCC1 [Compound 15, 3-((R)-2-Cyclohexyl-6-oxo-piperazin-1-yl)-5-phenyl-thiophene-2-carboxylic acid] | 73.5 | ≥ 5000 | –
Cc1ccc(-c2cc(N3C(=O)C(C)(C)OC[C@H]3C3CCCCC3)c(C(=O)O)s2)cc1 [Compound 314, 3-((R)-5-Cyclohexyl-2,2-dimethyl-3-oxo-morpholin-4-yl)-5-p-tolyl-thiophene-2-carboxylic acid] | 6 | ≤ 100 | –
Cc1ccc(-c2cc(N3C(=O)CCCC3C3CCCCC3)c(C(=O)O)s2)cc1 (stereo not shown) [Compound 71, 3-(2-Cyclohexyl-6-oxo-piperidin-1-yl)-5-p-tolyl-thiophene-2-carboxylic acid] | 52 | – | 100 to 5000
O=C(COc1ccccc1)N[C@@H]1CC(=O)N(c2cc(-c3ccccc3)sc2C(=O)O)[C@@H](C2CCCCC2)C1 [Compound 22, 3-[(2R,4S)-2-Cyclohexyl-6-oxo-4-(2-phenoxy-acetylamino)-piperidin-1-yl]-5-phenyl-thiophene-2-carboxylic acid] | 20 | ≥ 5000 | –
O=C(O)c1sc(-c2ccccc2)cc1N1C(=O)CN(S(=O)(=O)c2cccc(Cl)c2Cl)CC1C1CCCCC1 (stereo not shown) [Compound 111, 3-[2-Cyclohexyl-4-(2,3-dichloro-benzenesulfonyl)-6-oxo-piperazin-1-yl]-5-phenyl-thiophene-2-carboxylic acid] | 243 | ≥ 5000 | –
CC(C)(C)C#Cc1cc(N2C(=O)CN(S(=O)(=O)c3ccc(C(F)(F)F)nc3)C[C@H]2C2CCCCC2)c(C(=O)O)s1 [Compound 230, 3-[(R)-2-Cyclohexyl-6-oxo-4-(6-trifluoromethyl-pyridine-3-sulfonyl)-piperazin-1-yl]-5-(3,3-dimethyl-but-1-ynyl)-thiophene-2-carboxylic acid] | 6 | – | 100 to 5000
